Data set [1] deals with HT-29 colon cancer cells. Briefly: Combination with chemotherapy drugs, apoptosis in HT-29. The following applies: for interaction of chemotherapy drug with zinc-charged peptide (apoptosis): drug 6 μg per ml 12 hours, then zinc-charged 4H 4 μM for 6 hours, HT-29. The format is cell-based. Here is the method: To test this, HT-29 colon cancer cells were pre-incubated with various chemotherapy drugs at 6 μg per ml for 12 hours, then zinc-charged 4H at 4 μM was added for an additional 6 hours. Most chemotherapy drugs take up to 48 hours to see substantial apoptosis, and as such, the cells were pre-incubated with chemotherapy drugs first. The chemotherapy drugs tested included actinomycin (“A”), carmustine (“C”), docorubicin (“Dox”), genistin (“G”), 5-FU, and Tarceva.

The subject of another data set is normal WI38 lung cells. Briefly: Glycolysis (lactate) in WI38 cell lysate. As to conditions: WI38, FIG. 8b. The format is cell-based. Here is the method:
(§1) FIG. 8b is a bar graph depicting the level of glycolysis end product lactate in Calu-1 lung cancer cell lysate and of normal WI38 lung cell lysate after incubation with zinc-charged peptide 4H compared to a control of unincubated Calu-1 lung cancer cell lysate and unincubated normal WI38 lung cell lysate.
(§2) The zinc-charged peptides ability to inhibit glycolysis in other cancer cell lines, such as lung cancer, compared to their normal counterparts was also tested. […] To further study this observed phenomena in vivo, normal mice were fed with the zinc-charged 4H for five days, and the glycolysis of normal brain cells were studied. FIG. 9 depicts the results of this study. For this study, two groups of mice having four mice per group were compared, one being the control and the other being fed 0.5 mg of zinc-charged 4H per mouse per day for 5 days orally. After 5 days, brain and muscle tissue was collected, homogenized, and assayed for glycolysis rate.

The next data set has as its system brain tissue glycolysis. The data set is described as follows: Brain glycolysis in normal mice after oral dosing. The format is in vivo. The following applies: 0.5 mg per mouse per day, 5 days. Here is the method:
FIG. 9a is a bar graph depicting the level of glycolysis in the brain tissue of normal mice (N=4) after the mice were orally administered the zinc-charged peptide (4H, 0.5 mg/mouse) for five days compared to a control.
as §2
(§3) In mice fed with 0.5 mg of zinc-charged 4H for 5 days, the brain glycolysis of these mice was enhanced by 44%.

In the next data set the test system is brain ATP. The data set is described as follows: Brain ATP level in mice after oral dosing. The format is in vivo. As to conditions: 4H 0.5 mg per mouse per day, 5 days, normal mice. As to the method: FIG. 10 is a bar graph depicting the brain ATP level of normal mice after the mice were orally administered the zinc-charged peptide (4H, 0.5 mg/mouse) for five days compared to a control.
FIG. 11a is a bar graph depicting the brain ATP level of mice after the mice were orally administered the zinc-charged peptide (4H3, 1 mg/mouse) for five days compared to a control.
as §3
FIGS. 11a-d provide the graphical representations of these observations. FIG. 11a depicts the level of brain ATP in mice that were orally administered zinc-charged 4H3 compared to mice who were given the control. […] FIG. 11b depicts the level of brain Tau protein ATP in mice that were orally administered zinc-charged 4H3 compared to mice who were given the control. In this test, a 2.7 μg protein load was utilized. […] FIG. 11c depicts a retest of FIG. 11b, but with a lower protein load utilized instead. […] Lastly, FIG. 11d depicts the brain P38 MAPK levels in mice that were orally administered zinc-charged 4H3 compared to mice who were given the control. In this test, the mice given the zinc-charged 4H3 saw their brain P38 MAPK levels decrease by 61%.

Data set [2] relates to normal colon cell line CCD18Co. The data set is described as follows: Glycolysis (lactate) in CCD18Co cell lysate. The format is cell-based. As to conditions: FIG. 8a. Here is the method:
FIG. 8a is a bar graph depicting the level of glycolysis end product lactate in HT-29 colon cancer cell lysate and of normal CCD18Co colon cell lysate after incubation with zinc-charged peptide 4H compared to a control of unincubated HT-29 cancer cell lysate and unincubated normal CCD18Co colon cell lysate.
as §2

The test system of data set [3] is HT-29 colon cancer cells. The data set is described as follows: Glycolysis (lactate) in HT-29 cell lysate. It is filed as cell-based. Here is the method:
(§4) To determine the mechanism of induction of apoptosis to HT-29 cancer cells by the zinc-charged peptides, a low concentration (1 μM) of zinc-charged 4H was incubated with HT-29 cancer cells, followed by biochemical analysis of the cell lysate of the HT-29 cancer cells.
(§5) Furthermore, the decreased lactate was associated with a lower ATP level and a lower Glucose-6-phosphate (G-6-P) level in HT-29 cells.
as §2

The subject of the next data set is Calu-1 lung cancer cells. Briefly: Glycolysis (lactate) in Calu-1 cell lysate. It is filed as cell-based. The following applies: Calu-1, FIG. 8b. Here is the method:
as §1, §2

The next data set relates to muscle tissue glycolysis. Briefly: Muscle glycolysis in normal mice after oral dosing. It is filed as in vivo. As to conditions: 0.5 mg per mouse per day, 5 days. Here is the method: FIG. 9b is a bar graph depicting the level of glycolysis in the muscle tissue of normal mice after the mice were orally administered the zinc-charged peptide (4H, 0.5 mg/mouse) for five days compared to a control.
as §2, §3

Data set [4] concerns the target T1, hexokinase II (Homo sapiens, UniProt P52789).
T1 sequence (P52789 1-917): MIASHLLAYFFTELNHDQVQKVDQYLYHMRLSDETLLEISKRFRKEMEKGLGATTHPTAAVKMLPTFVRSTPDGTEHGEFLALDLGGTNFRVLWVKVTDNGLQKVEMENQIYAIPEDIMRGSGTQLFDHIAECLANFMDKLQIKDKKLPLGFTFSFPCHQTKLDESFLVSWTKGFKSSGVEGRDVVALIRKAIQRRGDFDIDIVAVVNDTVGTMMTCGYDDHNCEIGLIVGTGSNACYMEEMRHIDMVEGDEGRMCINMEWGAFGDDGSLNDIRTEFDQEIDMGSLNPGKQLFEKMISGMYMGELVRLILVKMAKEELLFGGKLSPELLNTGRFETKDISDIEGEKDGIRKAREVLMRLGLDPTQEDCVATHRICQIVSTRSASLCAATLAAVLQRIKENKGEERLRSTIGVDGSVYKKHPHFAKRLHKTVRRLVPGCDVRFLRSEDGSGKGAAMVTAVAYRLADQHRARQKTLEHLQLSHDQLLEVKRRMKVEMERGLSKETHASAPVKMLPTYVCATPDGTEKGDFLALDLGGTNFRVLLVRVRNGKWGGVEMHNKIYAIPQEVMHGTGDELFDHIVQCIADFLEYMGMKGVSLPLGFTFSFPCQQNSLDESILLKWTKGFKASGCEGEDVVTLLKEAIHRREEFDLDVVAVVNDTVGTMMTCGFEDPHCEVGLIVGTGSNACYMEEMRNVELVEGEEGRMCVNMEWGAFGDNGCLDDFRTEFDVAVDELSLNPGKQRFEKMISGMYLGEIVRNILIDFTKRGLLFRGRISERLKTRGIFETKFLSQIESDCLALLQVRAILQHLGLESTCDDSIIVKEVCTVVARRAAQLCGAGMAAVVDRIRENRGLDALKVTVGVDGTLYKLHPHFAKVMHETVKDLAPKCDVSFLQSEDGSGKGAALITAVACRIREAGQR
Briefly: In vitro hexokinase II assay. The format is biochemical. Here is the method: To test confirm that the zinc-charged peptides inhibit hexokinase II resulting in the inhibition of glycolysis, an in vitro hexokinase II assay was performed. FIG. 7 depicts the results of the in vitro hexokinase II assay. In this test, it was observed that hexokinase II was inhibited by zinc-charged 4H in a dose-dependent manner. […] These findings confirm that the zinc-charged peptides inhibit glycolysis at the hexokinase II enzyme level.

Data set [5] has as its target T1, hexokinase II. The data set is described as follows: Subcellular hexokinase II activity in HT-29. As to conditions: HT-29, 1 μM, 5 hours. It is filed as cell-based. Here is the method:
FIG. 14 is a bar graph depicting the subcellular hexokinase II activity in mitochondria, cytosol, and microsome of HT-29 cells incubated with the zinc-charged peptide (4H, 1 μM, for 5 hours) compared to a control of only the vehicle.
FIGS. 14-16 depicts the testing results validating that the zinc-charged peptides inhibit each of these three bioenergetic pathways. FIG. 14 depicts the subcellular hexokinase II activity in mitochondria, cytosol, and microsome to determine whether the zinc-charged peptides inhibit the hexokinase II activity in mitochondria. For this test, HT-29 cancer cells were incubated with zinc-charged 4H at 1 μM for 5 hours. After incubation, sub-cellular fractions including cytosol, microsome, and mitochondria were prepared and the hexokinase II activity on these sub-cellular fractions were tested.

For another data set, the system named is HT-29 cancer cells. Briefly: Intracellular glucose-6-phosphate in HT-29. It is filed as cell-based. The following applies: HT-29, 6 hours of incubation. Here is the method:
FIG. 6 is a bar graph depicting the level of intracellular Glucose-6-phosphate in HT-29 cancer cells after being incubated with the zinc-charged peptide 4H compared with a control.
as §4, §5

Data set [6] can be described thus: Water solubility of the peptide. It is filed as physicochemical. The following applies: uncharged peptide. From the text: The first peptide, listed as SEQ. ID NO. 1 in the accompanying sequence listing, has an amino acid sequence of E-Y-G-L-F-Q-I-S-N-K-L. This peptide, which is derived from natural human alpha-lactalbumin, will be referred to herein as “4H.” The second peptide, listed as SEQ. ID NO. […] This peptide has an amino acid sequence of E-Y-G-L-F-Q-I-S-N-K-K and will be referred to herein as “4H3.” Both these peptides were charged with zinc ions using the disclosed method to activate their apoptotic activities. Further, once these two peptides were charged with zinc ions, additional effects such as reducing Tau protein, increasing brain ATP levels and inhibiting P38 in the brain were observed, showing that these zinc-charged peptides further have a role in treating diseases involving tauopathy, such as Alzheimer's Disease and Parkinson's Disease.
Disclosed herein are two zinc-charged chemically synthesized peptides based upon the alpha-lactalbumin that are able to treat cancer and diseases involving tauopathy once activated by the disclosed method of charging the peptides with zinc ions. The first peptide, 4H, has an amino acid sequence of E-Y-G-L-F-Q-I-S-N-K-L (Seq. No. 1). The second peptide, 4H3, has an amino acid sequence of E-Y-G-L-F-Q-I-S-N-K-K (Seq. No. 2). […]

A short description of data set [7]: Absorption by gastrointestinal tract (earlier work). The following applies: before digestion with papain. From the text: (§6) Since alpha-lactalbumin is the major milk protein present in milk, this protein was first tested to determine if the bioactive peptides were derived from alpha-Lactalbumin. Purified alpha-lactalbumin was therefore treated with EDTA and zinc acetate.

Data set [8] concerns various cancer cell lines. Briefly: Apoptosis-inducing activity on various cancer cell lines (earlier work). It is filed as cell-based.
Text: Cow milk is known to contain numerous proteins and other beneficial compounds for humans.
as §6

Starred links: 1 amine or outer side, 2 acyl side, 3 side chain; linkers in the order of their positions; H or OH if unused. Positions of bridges follow the written chain, without caps; N, C: chain ends. Non-standard residues stand in square brackets, D forms with d. Residues, ends and D or L forms follow the SMILES beside them. Chains are numbered I, II in the order given. No end group written: not given here. Actinocin(9to1) = Cc1c2oc3c(C)ccc(C(=O)[*:1])c3nc-2c(C(=O)[*:2])c(N)c1=O; NMeV = CN[C@H](C(=O)O)C(C)C; Sar = CNCC(=O)O

The results in this text go back to patent US12065470B2, “Zinc-charged peptides for the treatment of cancer and alzheimer's disease” (priority 2022, dated 2024).

Turning to `O=c1[nH]cc(F)c(=O)[nH]1` [5-FU], the “interaction of chemotherapy drug with zinc-charged peptide (apoptosis)” value (“interaction of chemotherapy drug” below) in the data set on HT-29 colon cancer cells [1] is “synergistic”.
With `Cc1c2oc3c(C)ccc(C(=O)N[C@@H]4C(=O)N[C@H](C(C)C)C(=O)N5CCC[C@H]5C(=O)N(C)CC(=O)N(C)[C@@H](C(C)C)C(=O)O[C@@H]4C)c3nc-2c(C(=O)N[C@@H]2C(=O)N[C@H](C(C)C)C(=O)N3CCC[C@H]3C(=O)N(C)CC(=O)N(C)[C@@H](C(C)C)C(=O)O[C@@H]2C)c(N)c1=O` [actinomycin] (I: T[dV]P[Sar][NMeV] / II: T[dV]P[Sar][NMeV]; ester I:1-I:C, II:1-II:C; linker I:N-II:N via Actinocin(9to1)), the “interaction of chemotherapy drug” value with HT-29 colon cancer cells [1] was “synergistic”.
In the case of `O=NN(CCCl)C(=O)NCCCl` [carmustine], in the data set on HT-29 colon cancer cells [1], the “interaction of chemotherapy drug” value was “synergistic”.
On the same count and under the same terms, the same measure for `COc1cccc2c1C(=O)c1c(O)c3c(c(O)c1C2=O)C[C@@](O)(C(=O)CO)C[C@@H]3O[C@H]1C[C@H](N)[C@H](O)[C@H](C)O1` [doxorubicin]: “synergistic”.
For `O=c1c(-c2ccc(O)cc2)coc2cc(O[C@@H]3O[C@H](CO)[C@@H](O)[C@H](O)[C@H]3O)cc(O)c12` [genistin], in the data set with HT-29 colon cancer cells [1], the “interaction of chemotherapy drug” value is “synergistic”.
As for “E-Y-G-L-F-Q-I-S-N-K-L (EYGLFQISNKL; also: charged with zinc ions) [zinc-charged 4H, ID NO; 1 peptide derived from human alpha-lactalbumin, charged with zinc ions]”, the glycolysis inhibition with normal WI38 lung cells turned out to be 0%. Also, the brain glycolysis enhanced with brain tissue glycolysis is 44%. In addition, the “increase in brain ATP level” value in the data set on brain ATP is 31.4%. Also, the glycolysis inhibited in data set [2] is given as 10.5%; in the data set with HT-29 colon cancer cells [3] (HT-29, FIG. 8a), “up to 34.7%”; with Calu-1 lung cancer cells, 11.1%. Also, the “lactate lower than control cells” value in the data set with HT-29 colon cancer cells [3] (1 μM, HT-29 lysate, FIG. 4) amounted to 81.4%. Moreover, the muscle glycolysis increased in the data set with muscle tissue glycolysis is 15%. In addition, the “percentage of apoptosis in HT-29 after adding zinc-charged 4H to chemotherapy drugs” value in the data set on HT-29 colon cancer cells [1] (4 μM for 6 hours after 12 hours drug pre-incubation) is recorded as “significantly increased”. For the same molecule, the “hexokinase II inhibited” value turned out to be 28.6% with hexokinase II [4] (5 μM), 79.1% with hexokinase II [4] (10 μM) and 94.6% with hexokinase II [4] (20 µM). The “mitochondria associated hexokinase II activity inhibited” value with hexokinase II [5] was determined as 53%. The “reduction of intracellular G-6-P level” value with HT-29 cancer cells was 39.6%.
As for “EYGLFQISNKK [4H3, E-Y-G-L-F-Q-I-S-N-K-K]”, in data set [6], the “water solubility compared with 4H” value was “more water-soluble”.
Turning to “zinc-bound alpha-lactalbumin: purified alpha-lactalbumin treated with EDTA and zinc acetate”, in [7], the “absorption by gastrointestinal tract” value is given as “unable to be absorbed”. For the same molecule, the apoptosis-inducing activity result in [8] was “contain apoptosis-inducing activity”.
